The test system of assay [1] is microorganisms. The experiment in a line: Morphology, biofilm and growth disrupting peptides (Table 5). The format is cell-based. Further details: key: A: Peptide aggregates; B: Less hyphal formation; Clumps; Diffuse clumps and small polyps; F: Diffuse growth; H: Thin; I: Growth inhibition; Microcolony formation; Rippled; Small polyps; Thick; W: Halo formation on top, microlonies on bottom. From the text:
In certain embodiments peptides that induce alterations in phenotype or other biological activities can also be used as antimicrobial effector moieties.

For assay [2], the system named is microorganisms. Kind of assay: Targeting peptide binding to target microorganisms (Tables 3, 10, 12). The following applies: microorganism(s) the targeting peptide binds; binding in aqueous buffers varied with peptide solubility, preferably 1x PBS.
For assay [3], the system named is microorganisms. Kind of assay: Peptide activities: targeting/binding, antimicrobial, growth or phenotype altering (Tables 7, 8). The format is cell-based. The following applies: peptides having multiple activities.

“Also recorded” adds a separate entry of the source.

As for “PF-382: peptide having multiple activities (chain 1 KYKCSWCKRVYTLRKDHKTAR; chain 2 KYKCSWCKRVYTLRKDHKTAR; Peptide with targeting and/or antimicrobial activity)”, the “Organism, effect: MRSA” value in the assay on microorganisms [1] was “MRSA (M)”. In addition, the “Target(s)” value with microorganisms [2] is “S. epidermidis; also recorded: B. subtilis; also recorded: B. fragilis; also recorded: E. coli; also recorded: P. aeruginosa; also recorded: E. faecalis; also recorded: C. jeikeium; also recorded: C. jejuni”. The Activities result in the assay with microorganisms [3] is given as “G B”.

For “PF-383: peptide having multiple activities (chain 1 WSEIEINTKQSN; chain 2 WSEIEINTKQSN; Peptide with targeting and/or antimicrobial activity)”, in the assay with microorganisms [1], the “Organism, effect: E. coli” value is listed as “E. coli (R)” and the “Organism, effect: S. epidermidis” value was “S. epidermidis (C)”. The “Target(s)” value in the assay on microorganisms [2] is given as “S. epidermidis; also recorded: B. subtilis; also recorded: B. fragilis; also recorded: E. coli; also recorded: C. jejuni”. Moreover, the Activities entry in the assay on microorganisms [3] is recorded as “G B”.

Take “PF-385: peptide having multiple activities (chain 1 MIKKSILKIKYYVPVLISLTLILSA; chain 2 MIKKSILKIKYYVPVLISLTLILSA; Peptide with targeting and/or antimicrobial activity)”: the “Organism, effect: E. coli” value with microorganisms [1] was “E. coli (A)”. In addition, the “Target(s)” value in the assay with microorganisms [2] was “S. epidermidis; also recorded: E. coli; also recorded: P. aeruginosa; also recorded: C. albicans; also recorded: E. faecalis”. Further, the Activities result in the assay with microorganisms [3] is on record as “G B”.

Consider “PF-390: peptide having multiple activities (chain 1 VVAYVITQVGAIRF; chain 2 VVAYVITQVGAIRF; Peptide with targeting and/or antimicrobial activity)”, for which, in the assay with microorganisms [1], the “Organism, effect: C. jejuni” value is reported as “C. jejuni (D)”; the “Organism, effect: E. coli” value is “E. coli (C)”; the “Organism, effect: E. faecalis” value is “E. faecalis (D)”; the “Organism, effect: MRSA” value is recorded as “MRSA (D)”. Also, in the assay on microorganisms [1], the “Organism, effect: S. epidermidis” value was “S. epidermidis (D)” and the “Organism, effect: S. pneumoniae” value is listed as “S. pneumoniae (D)”. The “Target(s)” value in the assay on microorganisms [2] was “S. epidermidis and P. aeruginosa and C. albicans and MRSA”. For the same substance, the Activities result with microorganisms [3] was “G B”.

Consider “PF-392: peptide having multiple activities (chain 1 DPAGCNDIVRKYCK; chain 2 DPAGCNDIVRKYCK; Peptide with targeting and/or antimicrobial activity)”, for which, in the assay on microorganisms [1], the “Organism, effect: C. jejuni” value is “C. jejuni (A)”; the “Organism, effect: E. faecalis” value is recorded as “E. faecalis (A)”; the “Organism, effect: MRSA” value is on record as “MRSA (S)”. In the assay with microorganisms [2], the “Target(s)” value is on record as “S. epidermidis; also recorded: B. subtilis; also recorded: S. pneumoniae; also recorded: C. jeikeium; also recorded: C. jejuni”. In the assay with microorganisms [3], the Activities entry is listed as “G B”.

As to “PF-393: peptide having multiple activities (chain 1 DLVQSILSEFKKSG; chain 2 DLVQSILSEFKKSG; Peptide with targeting and/or antimicrobial activity)”, in the assay with microorganisms [1], the “Organism, effect: C. jejuni” value is listed as “C. jejuni (R)”; the “Organism, effect: E. faecalis” value is reported as “E. faecalis (A)”; the “Organism, effect: MRSA” value is reported as “MRSA (C)”; the “Organism, effect: S. epidermidis” value was “S. epidermidis (R)”. Moreover, the “Organism, effect: S. pneumoniae” value in the assay with microorganisms [1] is “S. pneumoniae (R)”. The “Target(s)” value in the assay on microorganisms [2] is “S. epidermidis and E. coli and C. albicans and MRSA and S. pneumoniae and C. jejuni”. Moreover, the Activities entry in the assay on microorganisms [3] is reported as “G B”.

As to “PF-394: peptide having multiple activities (chain 1 VLKEECYQKN; chain 2 VLKEECYQKN; Peptide with targeting and/or antimicrobial activity)”, in the assay on microorganisms [1], the “Organism, effect: E. faecalis” value is “E. faecalis (A)” and the “Organism, effect: MRSA” value is given as “MRSA (C)”. Moreover, the “Target(s)” value with microorganisms [2] was “S. epidermidis and MRSA and C. jejuni”. Besides, in the assay on microorganisms [3], the Activities result is listed as “G B”.

As for “PF-395: peptide having multiple activities (chain 1 YCVPLGNMGNMNNKIW; chain 2 YCVPLGNMGNMNNKIW; Peptide with targeting and/or antimicrobial activity)”, in the assay on microorganisms [1], the “Organism, effect: E. coli” value is listed as “E. coli (R)”; the “Organism, effect: MRSA” value is on record as “MRSA (C)”; the “Organism, effect: S. epidermidis” value is recorded as “S. epidermidis (C)”. The “Target(s)” value with microorganisms [2] is on record as “S. epidermidis; also recorded: E. coli; also recorded: P. aeruginosa; also recorded: S. pneumoniae; also recorded: E. faecalis; also recorded: C. jeikeium; also recorded: C. jejuni”. In addition, the Activities entry in the assay with microorganisms [3] is listed as “G B”.

Consider “PF-396: peptide having multiple activities (chain 1 LIYTILASLGVLTVLQAILGREPKAVKA; chain 2 LIYTILASLGVLTVLQAILGREPKAVKA; Peptide with targeting and/or antimicrobial activity)”, for which, in the assay with microorganisms [1], the “Organism, effect: E. coli” value is “E. coli (C)”; the “Organism, effect: E. faecalis” value is on record as “E. faecalis (C)”; the “Organism, effect: MRSA” value is listed as “MRSA (C)”; the “Organism, effect: S. epidermidis” value is “S. epidermidis (S)”. For the same substance, in the assay on microorganisms [2], the “Target(s)” value is “S. epidermidis; also recorded: E. coli; also recorded: P. aeruginosa; also recorded: C. albicans; also recorded: E. faecalis; also recorded: C. jeikeium”. The Activities result with microorganisms [3] is reported as “G B”.

With “PF-397: peptide having multiple activities (chain 1 VEDLMEDLNA; chain 2 VEDLMEDLNA; Peptide with targeting and/or antimicrobial activity)”, the “Organism, effect: S. epidermidis” value with microorganisms [1] is “S. epidermidis (C)”. Moreover, in the assay with microorganisms [2], the “Target(s)” value is “S. epidermidis and MRSA and S. pneumoniae and E. faecalis and C. jejuni”. Further, the Activities result with microorganisms [3] is reported as “G B”.

As for “PF-401: peptide having multiple activities (chain 1 YWLSRVTTGHSFAFEKPVPLSLTIK; chain 2 YWLSRVTTGHSFAFEKPVPLSLTIK; Peptide with targeting and/or antimicrobial activity)”, in the assay with microorganisms [1], the “Organism, effect: E. coli” value is given as “E. coli (R)”; the “Organism, effect: E. faecalis” value is given as “E. faecalis (C)”; the “Organism, effect: MRSA” value was “MRSA (C)”; the “Organism, effect: S. epidermidis” value is given as “S. epidermidis (C)”. Further, the “Target(s)” value in the assay on microorganisms [2] was “S. epidermidis and E. coli and P. aeruginosa and MRSA and E. faecalis and C. jejuni”. Further, the Activities entry in the assay on microorganisms [3] is “G B”.

As to “PF-403: peptide having multiple activities (chain 1 LLSTEQLLKYYDGETFDGFQLPSNE; chain 2 LLSTEQLLKYYDGETFDGFQLPSNE; Peptide with targeting and/or antimicrobial activity)”, in the assay on microorganisms [1], the “Organism, effect: E. coli” value is given as “E. coli (R)”; the “Organism, effect: MRSA” value is listed as “MRSA (M)”; the “Organism, effect: S. epidermidis” value is “S. epidermidis (M)”. For the same substance, the “Target(s)” value in the assay with microorganisms [2] is reported as “E. coli; also recorded: P. aeruginosa; also recorded: S. pneumoniae; also recorded: E. faecalis; also recorded: C. jeikeium; also recorded: C. jejuni”. For the same substance, the Activities entry in the assay with microorganisms [3] is on record as “G B”.

Consider “PF-404: peptide having multiple activities (chain 1 VLYFQATVV; chain 2 VLYFQATVV; Peptide with targeting and/or antimicrobial activity)”, for which, in the assay on microorganisms [1], the “Organism, effect: MRSA” value was “MRSA (M)” and the “Organism, effect: S. epidermidis” value was “S. epidermidis (M)”. Besides, the “Target(s)” value in the assay with microorganisms [2] was “S. epidermidis; also recorded: E. coli; also recorded: P. aeruginosa; also recorded: E. faecalis; also recorded: C. jeikeium; also recorded: C. jejuni”. In addition, the Activities entry with microorganisms [3] is reported as “G B”.

Take “PF-405: peptide having multiple activities (chain 1 LVRIEVDDLEEWYERNFI; chain 2 LVRIEVDDLEEWYERNFI; Peptide with targeting and/or antimicrobial activity)”: the “Organism, effect: MRSA” value in the assay with microorganisms [1] was “MRSA (M)”. Further, the “Target(s)” value with microorganisms [2] is on record as “S. epidermidis; also recorded: E. coli; also recorded: E. faecalis”. For the same substance, in the assay with microorganisms [3], the Activities result is reported as “G B”.

In the case of “PF-406: peptide having multiple activities (chain 1 YLEMNADYLSNMDIFDELWEKYLENNK; chain 2 YLEMNADYLSNMDIFDELWEKYLENNK; Peptide with targeting and/or antimicrobial activity)”, in the assay on microorganisms [1], the “Organism, effect: MRSA” value is “MRSA (M)” and the “Organism, effect: S. epidermidis” value was “S. epidermidis (C)”. Further, the “Target(s)” value with microorganisms [2] is given as “E. coli; also recorded: C. jejuni”. Also, in the assay with microorganisms [3], the Activities entry was “G B”.

For “PF-408: peptide having multiple activities (chain 1 YCVPLGNMGNMNNKIW; chain 2 YCVPLGNMGNMNNKIW; Peptide with targeting and/or antimicrobial activity)”, in the assay with microorganisms [1], the “Organism, effect: MRSA” value was “MRSA (M)” and the “Organism, effect: S. epidermidis” value is given as “S. epidermidis (M)”. Also, the “Target(s)” value with microorganisms [2] is “S. epidermidis and E. coli and P. aeruginosa and MRSA and E. faecalis and C. jeikeium and C. jejuni”. Moreover, the Activities result in the assay with microorganisms [3] is “G B”.

Take “PF-413: peptide having multiple activities (chain 1 TFAGSIKIGVPDLVHVTFNCKR; chain 2 TFAGSIKIGVPDLVHVTFNCKR; Peptide with targeting and/or antimicrobial activity)”: in the assay with microorganisms [1], the “Organism, effect: E. coli” value is given as “E. coli (S)”; the “Organism, effect: MRSA” value was “MRSA (C)”; the “Organism, effect: S. epidermidis” value is “S. epidermidis (C)”. The “Target(s)” value with microorganisms [2] is listed as “P. aeruginosa; also recorded: C. albicans; also recorded: C. jejuni”. In addition, the Activities result with microorganisms [3] is recorded as “G B”.

These data come from patent US20110039763A1, “TARGETED ANTIMICROBIAL MOIETIES” (C3 JIAN, INC., priority 2009, published 2011).
